According to ChEMBL document CHEMBL4364344, “Design, synthesis and evaluation of activity and pharmacokinetic profile of new derivatives of xanthone and piperazine in the central nervous system” (Bioorg Med Chem Lett, 2019):
The source made the active and inactive calls. The rule behind the calls is not given here.

Assays:
Mus musculus [1] = test: Anxiolytic activity in Swiss CD-1 mouse assessed as increase in number of punished crossings at 5 mg/kg, ip administered 30 mins prior to test and measured for 60 secs by four-plate test relative to control; format: functional
Mus musculus [2] = test: Antidepressant-like activity in albino Swiss CD-1 mouse assessed as reduction in immobility at 20 mg/kg, ip pretreated for 30 mins and measured after 6 mins by force swim test relative to control; format: functional; design: scale not given: the % may be the effect or the level left
[3] = biological target: Serotonin 2 (5-HT2) receptor (Rattus norvegicus) (UniProt P30994+P08909+P14842); test: Displacement of [3H]ketanserin from 5-HT2 receptor in Wistar rat brain cortex membrane at 10 uM after 40 mins by scintillation counting analysis relative to control; format: cell membranes
[4] = biological target: 5-hydroxytryptamine receptor 2A (Homo sapiens, UniProt P28223); test: Displacement of [3H]-ketanserin from human 5-HT2A receptor expressed in CHO-K1 cell membranes after 60 mins by microbeta scintillation counting analysis
Mus musculus [5] = test: Antidepressant-like activity in CD-1 mouse assessed as reduction in immobility at 10 mg/kg, ip pretreated for 30 mins and measured after 6 mins by force swim test relative to control; format: functional; design: scale not given: the % may be the effect or the level left
[6] = Cmax in CD-1 mouse plasma at 5 mg/kg, ip measured up to 480 mins by LC/ESI-MS/MS analysis; format: ADME, organism-based; design: dose 5 mg/kg, route intraperitoneal
[7] = Mutagenicity in Salmonella typhimurium TA100 preincubated for 20 mins followed by addition of top agar and measured after 48 hrs by Ames test; format: toxicity; settings: salmonella enterica subsp. enterica serovar typhimurium
[8] = Mutagenicity in Salmonella typhimurium TA98 at 50 ug/plate preincubated for 20 mins followed by addition of top agar and measured after 48 hrs by Ames test; format: toxicity; settings: salmonella enterica subsp. enterica serovar typhimurium
[9] = Apparent volume of distribution in CD-1 mouse plasma at 5 mg/kg, ip measured up to 480 mins by LC/ESI-MS/MS analysis; format: ADME, organism-based
[10] = Mutagenicity in Salmonella typhimurium TA100 at 500 ug/plate preincubated for 20 mins followed by addition of top agar and measured after 48 hrs by Ames test; format: toxicity; settings: salmonella enterica subsp. enterica serovar typhimurium
[11] = Terminal half life in CD-1 mouse plasma at 5 mg/kg, ip measured up to 480 mins by LC/ESI-MS/MS analysis; format: ADME, organism-based; settings: read-out: beta t1/2
[12] = Mutagenicity in Salmonella typhimurium TA98 at 5 ug/plate preincubated for 20 mins followed by addition of top agar and measured after 48 hrs by Ames test; format: toxicity; settings: salmonella enterica subsp. enterica serovar typhimurium
[13] = Mutagenicity in Salmonella typhimurium TA100 at 50 ug/plate preincubated for 20 mins followed by addition of top agar and measured after 48 hrs by Ames test; format: toxicity; settings: salmonella enterica subsp. enterica serovar typhimurium
[14] = Drug metabolism in mouse liver microsomes assessed as metabolite formation by measuring retention time at 20 uM after 30 to 60 mins in presence of NADP by UPLC/MS analysis; format: ADME, Microsome
[15] = Cmax in CD-1 mouse brain at 5 mg/kg, ip measured up to 480 mins by LC/ESI-MS/MS analysis; format: ADME, organism-based; design: dose 5 mg/kg, route intraperitoneal
[16] = MRT in CD-1 mouse plasma at 5 mg/kg, ip measured up to 480 mins by LC/ESI-MS/MS analysis; format: ADME, organism-based
[17] = Tmax in CD-1 mouse brain at 5 mg/kg, ip measured up to 480 mins by LC/ESI-MS/MS analysis; format: ADME, organism-based
Mus musculus [18] = test: Antidepressant-like activity in Swiss CD-1 mouse assessed as reduction in immobility at 10 mg/kg, ip pretreated for 30 mins and measured after 6 mins by force swim test; format: functional, organism-based
[19] = Terminal half life in CD-1 mouse brain at 5 mg/kg, ip measured up to 480 mins by LC/ESI-MS/MS analysis; format: ADME, organism-based; settings: read-out: beta t1/2
[20] = AUC (0 to total) in CD-1 mouse brain at 5 mg/kg, ip measured up to 480 mins by LC/ESI-MS/MS analysis; format: ADME, organism-based; settings: in vivo, 8 h
[21] = Mutagenicity in Salmonella typhimurium TA102 at 50 ug/plate preincubated for 20 mins followed by addition of top agar and measured after 48 hrs by Ames test; format: toxicity; settings: salmonella enterica subsp. enterica serovar typhimurium
[22] = Apparent clearance in CD-1 mouse plasma at 5 mg/kg, ip measured up to 480 mins by LC/ESI-MS/MS analysis; format: ADME, organism-based
Mus musculus [23] = test: Antidepressant-like activity in albino Swiss CD-1 mouse assessed as reduction in immobility at 5 mg/kg, ip administered 30 mins prior to test and measured after 6 mins by force swim test relative to control; format: functional; design: scale not given: the % may be the effect or the level left
[24] = Ratio of drug uptake in CD-1 mouse brain to plasma at 5 mg/kg, ip measured up to 480 mins by LC/ESI-MS/MS analysis; format: ADME, organism-based; settings: read-out: BPR
[25] = Mutagenicity in Salmonella typhimurium TA100 at 5 ug/plate preincubated for 20 mins followed by addition of top agar and measured after 48 hrs by Ames test; format: toxicity; settings: salmonella enterica subsp. enterica serovar typhimurium
[26] = Tmax in CD-1 mouse plasma at 5 mg/kg, ip measured up to 480 mins by LC/ESI-MS/MS analysis; format: ADME, organism-based
[27] = MRT in CD-1 mouse brain at 5 mg/kg, ip measured up to 480 mins by LC/ESI-MS/MS analysis; format: ADME, organism-based
[28] = AUC (0 to t) in CD-1 mouse plasma at 5 mg/kg, ip measured up to 480 mins by LC/ESI-MS/MS analysis; format: ADME, organism-based; design: dose 5 mg/kg, time < 8 hr, route intraperitoneal
[29] = Mutagenicity in Salmonella typhimurium TA100 at 250 ug/plate preincubated for 20 mins followed by addition of top agar and measured after 48 hrs by Ames test; format: toxicity; settings: salmonella enterica subsp. enterica serovar typhimurium
[30] = Mutagenicity in Salmonella typhimurium TA102 at 5 ug/plate preincubated for 20 mins followed by addition of top agar and measured after 48 hrs by Ames test; format: toxicity; settings: salmonella enterica subsp. enterica serovar typhimurium
[31] = Mutagenicity in Salmonella typhimurium TA98 at 500 ug/plate preincubated for 20 mins followed by addition of top agar and measured after 48 hrs by Ames test; format: toxicity; settings: salmonella enterica subsp. enterica serovar typhimurium
[32] = Mutagenicity in Salmonella typhimurium TA98 at 250 ug/plate preincubated for 20 mins followed by addition of top agar and measured after 48 hrs by Ames test; format: toxicity; settings: salmonella enterica subsp. enterica serovar typhimurium
[33] = Mutagenicity in Salmonella typhimurium TA102 at 250 ug/plate preincubated for 20 mins followed by addition of top agar and measured after 48 hrs by Ames test; format: toxicity; settings: salmonella enterica subsp. enterica serovar typhimurium
Mus musculus [34] = test: Antidepressant-like activity in albino Swiss CD-1 mouse assessed as reduction in immobility at 10 mg/kg, ip pretreated for 30 mins and measured after 6 mins by force swim test relative to control; format: functional; design: scale not given: the % may be the effect or the level left
[35] = Mutagenicity in Salmonella typhimurium TA102 at 500 ug/plate preincubated for 20 mins followed by addition of top agar and measured after 48 hrs by Ames test; format: toxicity; settings: salmonella enterica subsp. enterica serovar typhimurium
Mus musculus [36] = test: Anxiolytic activity in albino Swiss CD-1 mouse assessed as increase in number of punished crossings at 20 mg/kg, ip administered 30 mins prior to test by four-plate test relative to control; format: functional
Mus musculus [37] = test: Anxiolytic activity in albino Swiss CD-1 mouse assessed as increase in number of punished crossings at 5 mg/kg, ip administered 30 mins prior to test by four-plate test relative to control; format: functional
[38] = Mutagenicity in Salmonella typhimurium TA98 at 2.5 ug/plate preincubated for 20 mins followed by addition of top agar and measured after 48 hrs by Ames test; format: toxicity; settings: salmonella enterica subsp. enterica serovar typhimurium

Serotonin 2 (5-HT2) receptor (Rattus norvegicus), sequence (P08909 whole entry, looked up): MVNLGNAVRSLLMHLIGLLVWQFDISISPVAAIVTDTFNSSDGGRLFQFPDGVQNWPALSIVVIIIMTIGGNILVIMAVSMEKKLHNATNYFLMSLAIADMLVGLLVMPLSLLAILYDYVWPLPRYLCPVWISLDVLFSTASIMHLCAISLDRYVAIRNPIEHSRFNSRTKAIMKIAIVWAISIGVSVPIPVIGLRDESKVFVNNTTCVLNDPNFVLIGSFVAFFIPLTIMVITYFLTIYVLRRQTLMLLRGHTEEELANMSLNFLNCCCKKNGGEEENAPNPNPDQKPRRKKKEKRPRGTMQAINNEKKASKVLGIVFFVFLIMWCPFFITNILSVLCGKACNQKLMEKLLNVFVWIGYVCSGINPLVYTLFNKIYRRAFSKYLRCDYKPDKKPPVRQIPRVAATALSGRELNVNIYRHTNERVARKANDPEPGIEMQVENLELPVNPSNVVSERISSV
Serotonin 2 (5-HT2) receptor (Rattus norvegicus), sequence (P14842 whole entry, looked up): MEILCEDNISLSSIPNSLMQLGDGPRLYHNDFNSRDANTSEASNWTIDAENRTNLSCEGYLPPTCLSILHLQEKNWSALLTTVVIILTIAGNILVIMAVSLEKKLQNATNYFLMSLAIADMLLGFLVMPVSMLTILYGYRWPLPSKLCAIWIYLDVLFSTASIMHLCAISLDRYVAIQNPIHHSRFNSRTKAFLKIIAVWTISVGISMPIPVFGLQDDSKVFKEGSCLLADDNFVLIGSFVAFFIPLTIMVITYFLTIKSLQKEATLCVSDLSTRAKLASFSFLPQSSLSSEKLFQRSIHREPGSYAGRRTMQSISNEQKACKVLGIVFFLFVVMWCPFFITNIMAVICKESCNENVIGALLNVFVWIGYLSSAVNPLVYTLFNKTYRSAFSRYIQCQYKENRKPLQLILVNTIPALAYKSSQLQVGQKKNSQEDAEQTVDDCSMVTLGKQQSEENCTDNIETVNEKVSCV
Serotonin 2 (5-HT2) receptor (Rattus norvegicus), sequence (P30994 whole entry, looked up): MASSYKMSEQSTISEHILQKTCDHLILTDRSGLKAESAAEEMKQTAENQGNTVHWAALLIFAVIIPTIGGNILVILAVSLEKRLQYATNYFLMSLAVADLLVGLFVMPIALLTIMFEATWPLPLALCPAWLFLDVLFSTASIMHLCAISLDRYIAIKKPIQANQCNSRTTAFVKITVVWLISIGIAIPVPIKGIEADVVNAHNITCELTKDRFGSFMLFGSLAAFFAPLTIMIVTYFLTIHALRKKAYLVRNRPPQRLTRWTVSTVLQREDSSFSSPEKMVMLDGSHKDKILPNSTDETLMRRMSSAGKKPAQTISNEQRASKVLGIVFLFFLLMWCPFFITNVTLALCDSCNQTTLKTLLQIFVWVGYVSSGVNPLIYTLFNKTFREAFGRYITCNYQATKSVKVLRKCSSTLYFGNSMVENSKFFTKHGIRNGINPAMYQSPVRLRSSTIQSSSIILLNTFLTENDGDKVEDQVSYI
5-hydroxytryptamine receptor 2A, sequence (P28223 whole entry): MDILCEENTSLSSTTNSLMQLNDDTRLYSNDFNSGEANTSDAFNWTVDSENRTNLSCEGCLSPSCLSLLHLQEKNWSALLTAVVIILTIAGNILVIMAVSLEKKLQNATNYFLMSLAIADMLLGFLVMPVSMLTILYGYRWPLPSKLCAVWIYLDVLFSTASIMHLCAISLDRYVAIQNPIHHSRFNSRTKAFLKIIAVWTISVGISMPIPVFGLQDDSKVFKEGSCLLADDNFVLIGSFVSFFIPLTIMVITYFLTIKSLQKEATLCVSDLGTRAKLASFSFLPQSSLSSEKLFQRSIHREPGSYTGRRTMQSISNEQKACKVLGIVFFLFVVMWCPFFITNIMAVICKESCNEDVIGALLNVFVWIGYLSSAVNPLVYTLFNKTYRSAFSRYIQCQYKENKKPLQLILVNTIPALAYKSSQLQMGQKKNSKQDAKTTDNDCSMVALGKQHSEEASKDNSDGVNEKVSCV

CN1CCN(Cc2cccc3c(=O)c4ccc(Cl)cc4oc23)CC1.Cl.Cl
Activity (Mus musculus [1]): 100% | Activity (Mus musculus [2]): 28%

O=c1c2ccc(Cl)cc2oc2c(CN3CCN(c4ccccc4)CC3)cccc12
inhibition [3]: 75%

COc1ccc2c(=O)c3cccc(CN4CCN(c5ccccc5OC)CC4)c3oc2c1.Cl
Ki [4]: 2180 nM | Activity (Mus musculus [5]): 24%

O=c1c2cc(Cl)ccc2oc2ccc(CN3CCN(CCO)CC3)cc12
inhibition [3]: 43%

CN1CCN(Cc2ccc3oc4ccc(Cl)cc4c(=O)c3c2)CC1
Cmax [6]: 136 ng/mL | Activity_index [7]: Dose-dependent effect | Activity_index [8]: 0.78 | Vd/F [9]: 41.3 L/kg | Activity_index [10]: 2.93 | half-life [11]: 126 min | Activity_index [12]: 1.04 | Activity_index [13]: 0.43 | Retention_time [14]: 4.64 min | Cmax [15]: 3690 ng/mL | MRT [16]: 129 min | Tmax [17]: 30 min | Activity (Mus musculus [18]): inactive | half-life [19]: 159 min | inhibition [3]: 50% | AUCt [20]: 633023 ng·min/g | Activity_index [21]: 0.86 | CL/F [22]: 226 mL/min/kg | Activity (Mus musculus [23]): 37.8% | Kp at 8 h [24]: 31.6 | Activity_index [25]: 1.21 | Tmax [26]: 15 min | MRT [27]: 152 min | AUC(0-t) at 8 h [28]: 334 ng·h/mL | Activity_index [29]: 2.08 | Activity (Mus musculus [2]): 24.7% | Activity_index [30]: 1.04

COc1ccc(OCCCN2CCN(Cc3ccc4oc5cc(OC)ccc5c(=O)c4c3)CC2)cc1
inhibition [3]: 75%

COc1ccccc1N1CCN(Cc2cccc3c(=O)c4ccccc4oc23)CC1
inhibition [3]: 70%

COc1ccc(OCCCN2CCN(Cc3cccc4c(=O)c5ccc(OC)cc5oc34)CC2)cc1
inhibition [3]: 38%

[N-]=[N+]=[N-].[Na+] [SODIUM AZIDE]
Activity_index [25]: 2.26

CCOC(=O)N1CCN(Cc2cccc3c(=O)c4ccccc4oc23)CC1
inhibition [3]: 3%

COc1ccc2c(=O)c3cccc(CN4CCN(c5ccccc5)CC4)c3oc2c1
inhibition [3]: 91%

Cl.Cl.O=c1c2ccccc2oc2c(CN3CCN(CCO)CC3)cccc12
Cmax [6]: 462 ng/mL | Activity_index [8]: 0.86 | Vd/F [9]: 26.9 L/kg | Activity_index [10]: 0.31 | half-life [11]: 48.3 min | Activity_index [12]: 1.34 | Activity_index [13]: 0.79 | Retention_time [14]: 3.05 min | Activity_index [31]: 0.72 | Activity_index [32]: 0.52 | Cmax [15]: 2630 ng/mL | MRT [16]: 40.3 min | Activity_index [33]: 0.39 | Tmax [17]: 15 min | half-life [19]: 143 min | Activity (Mus musculus [34]): 25.6% | inhibition [3]: 0% | AUCt [20]: 62578 ng·min/g | Activity_index [21]: 0.54 | CL/F [22]: 386 mL/min/kg | Activity (Mus musculus [23]): 38.1% | Kp at 8 h [24]: 4.85 | Activity_index [25]: 0.69 | Tmax [26]: 15 min | MRT [27]: 24.1 min | Activity_index [35]: 0.26 | AUC(0-t) at 8 h [28]: 215 ng·h/mL | Activity_index [29]: 0.46 | Activity_index [30]: 0.74

CCOC(=O)N1CCN(Cc2cccc3c(=O)c4ccc(OC)cc4oc23)CC1.Cl.Cl
Cmax [6]: 468 ng/mL | Activity (Mus musculus [36]): 55.3% | Activity_index [8]: 0.79 | Vd/F [9]: 43.8 L/kg | Activity_index [10]: 0.34 | half-life [11]: 184 min | Activity_index [12]: 0.76 | Activity_index [13]: 0.61 | Retention_time [14]: 4.12 min | Activity_index [31]: 1 | Activity_index [32]: 0.72 | Cmax [15]: 936 ng/mL | MRT [16]: 60.5 min | Activity_index [33]: 1.3 | Tmax [17]: 30 min | half-life [19]: 72 min | Activity (Mus musculus [34]): 50.2% | inhibition [3]: 22% | AUCt [20]: 82715 ng·min/g | Activity_index [21]: 0.77 | CL/F [22]: 165 mL/min/kg | Kp at 8 h [24]: 2.86 | Activity_index [25]: 0.68 | Tmax [26]: 15 min | MRT [27]: 74.6 min | Activity_index [35]: 0.87 | AUC(0-t) at 8 h [28]: 481 ng·h/mL | Activity_index [29]: 0.42 | Activity_index [30]: 0.82 | Activity (Mus musculus [37]): 70.1%

Nc1ccc([N+](=O)[O-])cc1N
Activity_index [38]: 10.79

O=c1c2ccc(Cl)cc2oc2ccc(CN3CCN(CCO)CC3)cc12
inhibition [3]: 39%

O=c1c2ccccc2oc2c(CN3CCN(c4ccccc4)CC3)cccc12
inhibition [3]: 88%

COc1ccc2c(=O)c3cccc(CN4CCN(Cc5ccccc5)CC4)c3oc2c1
inhibition [3]: 41%

COc1ccc2c(=O)c3cc(CN4CCN(c5ccccc5OC)CC4)ccc3oc2c1.Cl
Ki [4]: 561 nM | Activity (Mus musculus [5]): 32%

Cl.Cl.O=c1c2ccc(Cl)cc2oc2c(CN3CCN(CCO)CC3)cccc12
Activity (Mus musculus [34]): 30%
